We go through 21 compounds from US9931327B2, “Derivatives of 1-phenyl-2-pyridinyl alkyl alcohols as phosphodiesterase inhibitors” (Chiesi Farmaceutici S.p.A., priority 2011, dated 2018).

pIC50: −log10 of the molar value.

This assay concerns LPS-induced TNF-α release in peripheral blood mononuclear cells (PBMCs). Description: In vitro determination of PDE4 inhibitory activity in the PBMCs assay (LPS-induced TNF-α release). In kind it is cell-based, human. As to conditions: PBMC; human PBMCs, LPS 3 ng/ml, 18 hours, TNF-α by ELISA; read-out: PDE4 inhibition (IC50, 50% inhibition of LPS-induced TNF-α release). A digest of the protocol: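 Cryopreserved human PBMCs (10^5 cells/well) pre-incubated 30 min with compound (10^−12 to 10^−6 M or 10^−3 to 10^−7 M), then stimulated with LPS 3 ng/ml for 18 h at 37 °C. TNF-α in medium by ELISA; IC50 as mean ± 95% confidence limits.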
On the technique in general: In an ELISA, binding on a coated surface is turned into a signal by an enzyme label.
The pIC50 is the negative decadic logarithm of the IC50, by convention in mol/L. Take `COC(=O)c1ccccc1S(=O)(=O)N1CCS[C@H]1C(=O)O[C@@H](Cc1c(Cl)c[n+]([O-])cc1Cl)c1ccc(OC(F)F)c(OCC2CC2)c1` [Compound 101, 3,5-dichloro-4-((S)-2-(3-(cyclopropylmethoxy)-4-(difluoromethoxy)phenyl)-2-((S)-3-(2-(methoxycarbonyl)phenylsulfonyl)thiazolidine-2-carbonyloxy)ethyl)pyridine 1-oxide]: the pIC50 was above 10.00.

Take `O=C(O[C@@H](Cc1c(Cl)c[n+]([O-])cc1Cl)c1ccc(OC(F)F)c(OCC2CC2)c1)C1CN(S(=O)(=O)c2ccccc2)CCO1` (stereo partly drawn) [Compound 79, 3,5-dichloro-4-((2S)-2-(3-(cyclopropylmethoxy)-4-(difluoromethoxy)phenyl)-2-(4-(phenylsulfonyl)morpholine-2-carbonyloxy)ethyl)pyridine 1-oxide]: the pIC50 was 9.00 to 10.00.

For `CN1CCN(C(=O)c2ccc(S(=O)(=O)N3CCSC3C(=O)O[C@@H](Cc3c(Cl)c[n+]([O-])cc3Cl)c3ccc(OC(F)F)c(OCC4CC4)c3)cc2)CC1` (stereo partly drawn) [Compound 126, 3,5-dichloro-4-((2S)-2-(3-(cyclopropylmethoxy)-4-(difluoromethoxy)phenyl)-2-(3-(4-(4-methylpiperazine-1-carbonyl)phenylsulfonyl)thiazolidine-2-carbonyloxy)ethyl)pyridine 1-oxide], the pIC50 was 9.00 to 10.00.

Consider `COC(=O)c1ccc(S(=O)(=O)N2CCS[C@H]2C(=O)O[C@@H](Cc2c(Cl)c[n+]([O-])cc2Cl)c2ccc(OC(F)F)c(OCC3CC3)c2)cc1` [Compound 100, 3,5-dichloro-4-((S)-2-(3-(cyclopropylmethoxy)-4-(difluoromethoxy)phenyl)-2-((S)-3-(4-(methoxycarbonyl)phenylsulfonyl)thiazolidine-2-carbonyloxy)ethyl)pyridine 1-oxide], for which the pIC50 is 8.00 to 9.00.

Turning to `O=C(O)c1cccc(S(=O)(=O)N2CCSC2C(=O)O[C@@H](Cc2c(Cl)c[n+]([O-])cc2Cl)c2ccc(OC(F)F)c(OCC3CC3)c2)c1` (single isomer, unassigned) [Compound 75, 4-((S)-2-((S)-3-(3-carboxyphenylsulfonyl)thiazolidine-2-carbonyloxy)-2-(3-(cyclopropylmethoxy)-4-(difluoromethoxy)phenyl)ethyl)-3,5-dichloropyridine 1-oxide or 4-((S)-2-((R)-3-(3-carboxyphenylsulfonyl)thiazolidine-2-carbonyloxy)-2-(3-(cyclopropylmethoxy)-4-(difluoromethoxy)phenyl)ethyl)-3,5-dichloropyridine 1-oxide], the pIC50 was 9.00 to 10.00.

With `CS(=O)(=O)c1ccc(S(=O)(=O)N2CCS[C@H]2C(=O)O[C@@H](Cc2c(Cl)c[n+]([O-])cc2Cl)c2ccc(OC(F)F)c(OCC3CC3)c2)cc1` [Compound 109, 3,5-dichloro-4-((S)-2-(3-(cyclopropylmethoxy)-4-(difluoromethoxy)phenyl)-2-((S)-3-(4-(methylsulfonyl)phenylsulfonyl)thiazolidine-2-carbonyloxy)ethyl)pyridine 1-oxide], the pIC50 is above 10.00.

With `Cn1ccnc1S(=O)(=O)N1CCSC1C(=O)O[C@@H](Cc1c(Cl)c[n+]([O-])cc1Cl)c1ccc(OC(F)F)c(OCC2CC2)c1` (stereo partly drawn) [Compound 64, 3,5-dichloro-4-((2S)-2-(3-(cyclopropylmethoxy)-4-(difluoromethoxy)phenyl)-2-(3-(1-methyl-1H-imidazol-2-ylsulfonyl)thiazolidine-2-carbonyloxy)ethyl)pyridine 1-oxide], the pIC50 was above 10.00.

With `Cc1nn(C)c2ncc(S(=O)(=O)N3CCSC3C(=O)O[C@@H](Cc3c(Cl)c[n+]([O-])cc3Cl)c3ccc(OC(F)F)c(OCC4CC4)c3)cc12` (stereo in doubt) [Compound 240, 3,5-dichloro-4-((S)-2-(3-(cyclopropylmethoxy)-4-(difluoromethoxy)phenyl)-2-((S)-3-(1,3-dimethyl-1H-pyrazolo[3,4-b]pyridin-5-ylsulfonyl)thiazolidine-2-carbonyloxy)ethyl)pyridine 1-oxide], the pIC50 is above 10.00.

Regarding `O=C(O[C@@H](Cc1c(Cl)c[n+]([O-])cc1Cl)c1ccc(OC(F)F)c(OCC2CC2)c1)[C@@H]1SCCN1S(=O)(=O)c1c[nH]c(C(=O)N2CCCC2)c1` [Compound 242, 3,5-dichloro-4-((S)-2-(3-(cyclopropylmethoxy)-4-(difluoromethoxy)phenyl)-2-((S)-3-(5-(pyrrolidine-1-carbonyl)-1H-pyrrol-3-ylsulfonyl)thiazolidine-2-carbonyloxy)ethyl)pyridine 1-oxide], the pIC50 was above 10.00.

For the compound `CN(C)C(=O)c1cccc(S(=O)(=O)N2CCCC[C@H]2C(=O)O[C@@H](Cc2c(Cl)c[n+]([O-])cc2Cl)c2ccc(OC(F)F)c(OCC3CC3)c2)c1` [Compound 82, 3,5-dichloro-4-((S)-2-(3-(cyclopropylmethoxy)-4-(difluoromethoxy)phenyl)-2-((S)-1-(3-(dimethylcarbamoyl)phenylsulfonyl)piperidine-2-carbonyloxy)ethyl)pyridine 1-oxide], the pIC50 was above 10.00.

As to `CN(C)C(=O)c1cccc(S(=O)(=O)N2CCS[C@H]2C(=O)O[C@@H](Cc2c(Cl)c[n+]([O-])cc2Cl)c2ccc(OC(F)F)c(O)c2)c1` [Compound 263, 3,5-dichloro-4-((S)-2-(4-(difluoromethoxy)-3-hydroxyphenyl)-2-((S)-3-(3-(dimethylcarbamoyl)phenylsulfonyl)thiazolidine-2-carbonyloxy)ethyl)pyridine 1-oxide], the pIC50 was 8.00 to 9.00.

Regarding `Cn1ccnc1S(=O)(=O)N1CCS[C@H]1C(=O)O[C@@H](Cc1c(Cl)c[n+]([O-])cc1Cl)c1ccc(OC(F)F)c(OCC2CC2)c1` [Compound 90, 3,5-dichloro-4-((S)-2-(3-(cyclopropylmethoxy)-4-(difluoromethoxy)phenyl)-2-((S)-3-(1-methyl-1H-imidazol-2-ylsulfonyl)thiazolidine-2-carbonyloxy)ethyl)pyridine 1-oxide], the pIC50 was above 10.00.

Turning to `NS(=O)(=O)c1cccc(S(=O)(=O)N2CCS[C@H]2C(=O)O[C@@H](Cc2c(Cl)c[n+]([O-])cc2Cl)c2ccc(OC(F)F)c(OCC3CC3)c2)c1` [Compound 91, 3,5-dichloro-4-((S)-2-(3-(cyclopropylmethoxy)-4-(difluoromethoxy)phenyl)-2-((S)-3-(3-sulfamoylphenylsulfonyl)thiazolidine-2-carbonyloxy)ethyl)pyridine 1-oxide], the pIC50 is above 10.00.

`CN(C)C(=O)c1cccc(S(=O)(=O)N2CSC[C@H]2C(=O)O[C@@H](Cc2c(Cl)c[n+]([O-])cc2Cl)c2ccc(OC(F)F)c(OCC3CC3)c2)c1` [Compound 84, 3,5-dichloro-4-((S)-2-(3-(cyclopropylmethoxy)-4-(difluoromethoxy)phenyl)-2-((R)-3-(3-(dimethylcarbamoyl)phenylsulfonyl)thiazolidine-4-carbonyloxy)ethyl)pyridine 1-oxide]: the pIC50 is above 10.00.

Consider `Cc1cc(F)ccc1S(=O)(=O)N1CCSC1C(=O)O[C@@H](Cc1c(Cl)c[n+]([O-])cc1Cl)c1ccc(OC(F)F)c(OCC2CC2)c1` (stereo partly drawn) [Compound 69, 3,5-dichloro-4-((2S)-2-(3-(cyclopropylmethoxy)-4-(difluoromethoxy)phenyl)-2-(3-(4-fluoro-2-methylphenylsulfonyl)thiazolidine-2-carbonyloxy)ethyl)pyridine 1-oxide], for which the pIC50 was 9.00 to 10.00.

In the case of `Nc1ccc(C(=O)N2CCSC2C(=O)O[C@@H](Cc2c(Cl)c[n+]([O-])cc2Cl)c2ccc(OC(F)F)c(OCC3CC3)c2)cc1` (stereo partly drawn) [Compound 26, 4-((2S)-2-(3-(4-aminobenzoyl)thiazolidine-2-carbonyloxy)-2-(3-(cyclopropylmethoxy)-4-(difluoromethoxy)phenyl)ethyl)-3,5-dichloropyridine 1-oxide], the pIC50 is 9.00 to 10.00.

In the case of `COc1ccc(S(=O)(=O)N2CCS[C@H]2C(=O)O[C@@H](Cc2c(Cl)c[n+]([O-])cc2Cl)c2ccc(OC(F)F)c(OCC3CC3)c2)cc1OC` [Compound 93, 3,5-dichloro-4-((S)-2-(3-(cyclopropylmethoxy)-4-(difluoromethoxy)phenyl)-2-((S)-3-(3,4-dimethoxyphenylsulfonyl)thiazolidine-2-carbonyloxy)ethyl)pyridine 1-oxide], the pIC50 is above 10.00.

Take `O=C(O[C@@H](Cc1c(Cl)c[n+]([O-])cc1Cl)c1ccc(OC(F)F)c(OCC2CC2)c1)[C@@H]1SCCN1S(=O)(=O)c1ccoc1` [Compound 96, 3,5-dichloro-4-((S)-2-(3-(cyclopropylmethoxy)-4-(difluoromethoxy)phenyl)-2-((S)-3-(furan-3-ylsulfonyl)thiazolidine-2-carbonyloxy)ethyl)pyridine 1-oxide]: the pIC50 was above 10.00.

`O=C(O[C@@H](Cc1c(Cl)c[n+]([O-])cc1Cl)c1ccc(OC(F)F)c(OCC2CC2)c1)[C@@H]1CCCCN1S(=O)(=O)c1cccnc1` [Compound 99, 3,5-dichloro-4-((S)-2-(3-(cyclopropylmethoxy)-4-(difluoromethoxy)phenyl)-2-((S)-1-(pyridin-3-ylsulfonyl)piperidine-2-carbonyloxy)ethyl)pyridine 1-oxide]: the pIC50 is 8.00 to 9.00.

As for `NCc1cccc(C(=O)N2CCS[C@H]2C(=O)O[C@@H](Cc2c(Cl)c[n+]([O-])cc2Cl)c2ccc(OC(F)F)c(OCC3CC3)c2)c1` [Compound 21, 4-((S)-2-((S)-3-(3-(aminomethyl)benzoyl)thiazolidine-2-carbonyloxy)-2-(3-(cyclopropylmethoxy)-4-(difluoromethoxy)phenyl)ethyl)-3,5-dichloropyridine 1-oxide], the pIC50 is 8.00 to 9.00.

For the compound `CN(C)C(=O)c1cccc(S(=O)(=O)N2CCCC[C@@H]2C(=O)O[C@@H](Cc2c(Cl)c[n+]([O-])cc2Cl)c2ccc(OC(F)F)c(OCC3CC3)c2)c1` [Compound 83, 3,5-dichloro-4-((S)-2-(3-(cyclopropylmethoxy)-4-(difluoromethoxy)phenyl)-2-((R)-1-(3-(dimethylcarbamoyl)phenylsulfonyl)piperidine-2-carbonyloxy)ethyl)pyridine 1-oxide], the pIC50 was above 10.00.
